# Experimental data from PubChem BioAssay AID2060611 (Molecular Pharmacology Branch, DTP, NCI, 2025).
# Several values for one entry are separate records, joined by “and”; a condition that tells them apart may be missing. Equal entries are not always repeated.
# Test system: 628569-122-R-J1-PDC complex spheroid viability
# Experiment: Anticancer human tumor 628569-122-R-J1-PDC patient-derived head and neck squamous carcinoma cell line growth inhibition [CLK]
# Details: for viability, T/C: stronger effect = lower value
# Summary of the method: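 Patient-derived tumor cells grown as complex spheroids with HUVEC endothelial cells and mesenchymal stem cells, treated with drug combinations. Concentrations descend in half-log steps from near clinical Cmax, or from 10 microM if Cmax unknown.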
# [1] = curve of first compound, second compound 0.0316 µM
# [2] = curve of first compound, second compound 0.1 µM
# [3] = curve of first compound, second compound 0.316 µM
# [4] = curve of first compound, second compound 1 µM
# [5] = curve of first compound, second compound 3.16 µM
# [6] = curve of first compound, second compound 10 µM
# [7] = second compound 0.0316 µM, first compound 0.0316 µM
# [8] = second compound 0.0316 µM, first compound 0.1 µM
# [9] = second compound 0.0316 µM, first compound 0.316 µM
# [10] = second compound 0.0316 µM, first compound 1 µM
# [11] = second compound 0.1 µM, first compound 0.0316 µM
# [12] = second compound 0.1 µM, first compound 0.1 µM
# [13] = second compound 0.1 µM, first compound 0.316 µM
# [14] = second compound 0.1 µM, first compound 1 µM
# [15] = second compound 0.316 µM, first compound 0.0316 µM
# [16] = second compound 0.316 µM, first compound 0.1 µM
# [17] = second compound 0.316 µM, first compound 0.316 µM
# [18] = second compound 0.316 µM, first compound 1 µM
# [19] = second compound 1 µM, first compound 0.0316 µM
# [20] = second compound 1 µM, first compound 0.1 µM
# [21] = second compound 1 µM, first compound 0.316 µM
# [22] = second compound 1 µM, first compound 1 µM
# [23] = second compound 3.16 µM, first compound 0.0316 µM
# [24] = second compound 3.16 µM, first compound 0.1 µM
# [25] = second compound 3.16 µM, first compound 0.316 µM
# [26] = second compound 3.16 µM, first compound 1 µM
# [27] = second compound 10 µM, first compound 0.0316 µM
# [28] = second compound 10 µM, first compound 0.1 µM
# [29] = second compound 10 µM, first compound 0.316 µM
# [30] = second compound 10 µM, first compound 1 µM
# [31] = second compound 0.0316 µM, first compound 0.00316 µM
# [32] = second compound 0.0316 µM, first compound 0.01 µM
# [33] = second compound 0.1 µM, first compound 0.00316 µM
# [34] = second compound 0.1 µM, first compound 0.01 µM
# [35] = second compound 0.316 µM, first compound 0.00316 µM
# [36] = second compound 0.316 µM, first compound 0.01 µM
# [37] = second compound 1 µM, first compound 0.00316 µM
# [38] = second compound 1 µM, first compound 0.01 µM
# [39] = second compound 3.16 µM, first compound 0.00316 µM
# [40] = second compound 3.16 µM, first compound 0.01 µM
# [41] = second compound 10 µM, first compound 0.00316 µM
# [42] = second compound 10 µM, first compound 0.01 µM
# 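Further: spheroids exposed to agents for seven days before readout.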
# 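Wherever viability, T/C is given: 100% = DMSO vehicle control viability.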
smiles,measurement,setting,value
CC1(C)CCC(CN2CCN(c3ccc(C(=O)NS(=O)(=O)c4ccc(NCC5CCOCC5)c([N+](=O)[O-])c4)c(Oc4cnc5[nH]ccc5c4)c3)CC2)=C(c2ccc(Cl)cc2)C1 + CN1CCN(c2cc(C(=O)Nc3cc4cc(-c5cnn(C)c5)ccc4cn3)ccn2)CC1,IC50,[1],> 10000 nM
same,IC50,[2],> 10000 nM
same,IC50,[3],< 31.6 nM
same,IC50,[4],< 31.6 nM
same,IC50,[5],< 31.6 nM
same,IC50,[6],< 31.6 nM
same,"viability, T/C",[7],94%
same,"viability, T/C",[8],105%
same,"viability, T/C",[9],103%
same,"viability, T/C",[10],96%
same,"viability, T/C","second compound 0.0316 µM, first compound 3.16 µM",97%
same,"viability, T/C","second compound 0.0316 µM, first compound 10 µM",85.6%
same,"viability, T/C",[11],70.8%
same,"viability, T/C",[12],63.6%
same,"viability, T/C",[13],78.5%
same,"viability, T/C",[14],67.7%
same,"viability, T/C","second compound 0.1 µM, first compound 3.16 µM",71.1%
same,"viability, T/C","second compound 0.1 µM, first compound 10 µM",69.5%
same,"viability, T/C",[15],36.1%
same,"viability, T/C",[16],29.7%
same,"viability, T/C",[17],41.3%
same,"viability, T/C",[18],36%
same,"viability, T/C","second compound 0.316 µM, first compound 3.16 µM",28.4%
same,"viability, T/C","second compound 0.316 µM, first compound 10 µM",22.4%
same,"viability, T/C",[19],10.8%
same,"viability, T/C",[20],13.3%
same,"viability, T/C",[21],5.93%
same,"viability, T/C",[22],9.88%
same,"viability, T/C","second compound 1 µM, first compound 3.16 µM",10.1%
same,"viability, T/C","second compound 1 µM, first compound 10 µM",3.58%
same,"viability, T/C",[23],8.81%
same,"viability, T/C",[24],8.56%
same,"viability, T/C",[25],6.4%
same,"viability, T/C",[26],7.84%
same,"viability, T/C","second compound 3.16 µM, first compound 3.16 µM",8.73%
same,"viability, T/C","second compound 3.16 µM, first compound 10 µM",3.29%
same,"viability, T/C",[27],7.98%
same,"viability, T/C",[28],2.99%
same,"viability, T/C",[29],4.03%
same,"viability, T/C",[30],8.3%
same,"viability, T/C","second compound 10 µM, first compound 3.16 µM",3.6%
same,"viability, T/C","second compound 10 µM, first compound 10 µM",0.85%
O=C(c1cc(Cc2n[nH]c(=O)c3ccccc23)ccc1F)N1CCN(C(=O)C2CC2)CC1,"viability, T/C",compound 0.0316 µM,86.8% and 91.2%
same,"viability, T/C",compound 0.1 µM,96.3% and 91.3%
same,"viability, T/C",compound 0.316 µM,90.6% and 110%
same,"viability, T/C",compound 1 µM,88.7% and 91.9%
same,"viability, T/C",compound 3.16 µM,74.6% and 93.7%
same,"viability, T/C",compound 10 µM,55.2% and 51.5%
same,IC50,curve of compound,> 10000 nM
Cn1ncnc1[C@H]1c2n[nH]c(=O)c3cc(F)cc(c23)N[C@@H]1c1ccc(F)cc1,"viability, T/C",compound 0.000316 µM,90.7% and 78.8%
same,"viability, T/C",compound 0.001 µM,96.5% and 103%
same,"viability, T/C",compound 0.00316 µM,97.3% and 61.4%
same,"viability, T/C",compound 0.01 µM,89.6% and 93.2%
same,"viability, T/C",compound 0.0316 µM,67.8% and 81.5%
same,"viability, T/C",compound 0.1 µM,69.2% and 63.6%
same,IC50,curve of compound,> 100 nM
Cn1ncnc1[C@H]1c2n[nH]c(=O)c3cc(F)cc(c23)N[C@@H]1c1ccc(F)cc1 + CNC(=O)c1ccc(Nc2nc(OC3CCCC3)c3c(-c4ccc5nc(C)oc5c4)c[nH]c3n2)c(OC)c1,IC50,[1],> 100 nM
same,IC50,[2],37.6 nM
same,IC50,[3],1.53 nM
same,IC50,[4],< 0.316 nM
same,IC50,[5],< 0.316 nM
same,IC50,[6],< 0.316 nM
same,"viability, T/C","second compound 0.0316 µM, first compound 0.000316 µM",86.7%
same,"viability, T/C","second compound 0.0316 µM, first compound 0.001 µM",90.1%
same,"viability, T/C",[31],82.7%
same,"viability, T/C",[32],71.3%
same,"viability, T/C",[7],78%
same,"viability, T/C",[8],64.9%
same,"viability, T/C","second compound 0.1 µM, first compound 0.000316 µM",61.4%
same,"viability, T/C","second compound 0.1 µM, first compound 0.001 µM",53.4%
same,"viability, T/C",[33],60.1%
same,"viability, T/C",[34],53.7%
same,"viability, T/C",[11],51%
same,"viability, T/C",[12],45.9%
same,"viability, T/C","second compound 0.316 µM, first compound 0.000316 µM",47.7%
same,"viability, T/C","second compound 0.316 µM, first compound 0.001 µM",48.4%
same,"viability, T/C",[35],51.9%
same,"viability, T/C",[36],54.4%
same,"viability, T/C",[15],54.5%
same,"viability, T/C",[16],39.6%
same,"viability, T/C","second compound 1 µM, first compound 0.000316 µM",43.9%
same,"viability, T/C","second compound 1 µM, first compound 0.001 µM",39.5%
same,"viability, T/C",[37],48.1%
same,"viability, T/C",[38],39%
same,"viability, T/C",[19],40.1%
same,"viability, T/C",[20],40.2%
same,"viability, T/C","second compound 3.16 µM, first compound 0.000316 µM",37.5%
same,"viability, T/C","second compound 3.16 µM, first compound 0.001 µM",45.5%
same,"viability, T/C",[39],48.5%
same,"viability, T/C",[40],41.5%
same,"viability, T/C",[23],37.7%
same,"viability, T/C",[24],34.3%
same,"viability, T/C","second compound 10 µM, first compound 0.000316 µM",47.4%
same,"viability, T/C","second compound 10 µM, first compound 0.001 µM",39.6%
same,"viability, T/C",[41],41.4%
same,"viability, T/C",[42],36.7%
same,"viability, T/C",[27],38%
same,"viability, T/C",[28],31.3%
CCN1CCN(Cc2ccc(Nc3ncc(F)c(-c4cc(F)c5nc(C)n(C(C)C)c5c4)n3)nc2)CC1 + CN1CCN(c2cc(C(=O)Nc3cc4cc(-c5cnn(C)c5)ccc4cn3)ccn2)CC1,IC50,[1],> 1000 nM
same,IC50,[2],> 1000 nM
same,IC50,[3],< 3.16 nM
same,IC50,[4],< 3.16 nM
same,IC50,[5],< 3.16 nM
same,IC50,[6],< 3.16 nM
same,"viability, T/C",[31],91.4%
same,"viability, T/C",[32],85.2%
same,"viability, T/C",[7],73.7%
same,"viability, T/C",[8],79.6%
same,"viability, T/C",[9],132%
same,"viability, T/C",[10],181%
same,"viability, T/C",[33],72.8%
same,"viability, T/C",[34],55.6%
same,"viability, T/C",[11],64.6%
same,"viability, T/C",[12],75.3%
same,"viability, T/C",[13],96.8%
same,"viability, T/C",[14],157%
same,"viability, T/C",[35],42.6%
same,"viability, T/C",[36],43.2%
same,"viability, T/C",[15],48.1%
same,"viability, T/C",[16],53.1%
same,"viability, T/C",[17],81.8%
same,"viability, T/C",[18],88.4%
same,"viability, T/C",[37],10.7%
same,"viability, T/C",[38],5.74%
same,"viability, T/C",[19],6.1%
same,"viability, T/C",[20],7.58%
same,"viability, T/C",[21],12%
same,"viability, T/C",[22],12.2%
same,"viability, T/C",[39],9.03%
same,"viability, T/C",[40],6.91%
same,"viability, T/C",[23],7.06%
same,"viability, T/C",[24],8.11%
same,"viability, T/C",[25],10.9%
same,"viability, T/C",[26],11.1%
same,"viability, T/C",[41],9.28%
same,"viability, T/C",[42],1.85%
same,"viability, T/C",[27],3.61%
same,"viability, T/C",[28],4.38%
same,"viability, T/C",[29],8.89%
same,"viability, T/C",[30],4.27%
